From patent US20070219180A1, “Muscle Relaxtion Accelerator and Therapeutic Agent for Muscular Tissue Diseases Such as Muscle Relaxation Failure” (priority 2004, published 2007)
Values joined by “and” are separate entries in the source; they are usually repeats but may differ in a detail not shown here. Equal values may be shown once.

What was measured:
[1] = test system: white rabbits; assay: Experiment 9: effect of the compound on blood pressure in rabbits; assay type: in vivo, rabbit; conditions: for Mean blood pressure relative to before administration (100%): before administration (defined as 100%)
Experimental: Effects of the compound on blood pressure were examined in the same way as described in Experiment 2. In this experiment, Control and Tests 6-9 were anesthetized with a single intravenous injection of 20 mg/kg methohexital sodium under artificial respiration (Type AR1Narishige Group) using endotracheal intubation. The 1,4-benzothiazepine derivative or pharmaceutically acceptable salt thereof was used as the compound in this experiment.
Five white rabbits (weight: 2.7-2.9 kg) were used in this experiment: a rabbit (weight: 2.8 kg, Control) that received control solution, a rabbit (weight: 2.7 kg, Test 6) that received the compound at 0.04 mg/kg/min, a rabbit (weight: 2.7 kg, Test 7) that received the compound at 0.04 mg/kg/min, a rabbit (weight: 2.9 kg, Test 8) that received the compound at 0.4 mg/kg/min, and a rabbit (weight: 2.8 kg, Test 9) that received the compound at 0.4 mg/kg/min.
Each rabbit was anesthetized with a single intravenous injection of 20 mg/kg methohexital sodium under artificial respiration (Type AR1 Narishige Group) using endotracheal intubation. Subsequently, α-chloralose was injected into the ear veins at 90 mg/kg/20 min. A DMSO solution of the compound was prepared by dissolving 100 mg of the compound in 1 ml of dimethylsulfoxide (DMSO), and stored at 4° C.
In this experiment, injection catheters for the compound for administration of drugs were inserted into the right external jugular veins of the rabbits and microchip catheters (SPC-320, Millar) for blood pressure measurement were inserted via the right common arteries. A 2-lead electrocardiogram was examined and blood pressure, cardiac rate, and electrocardiogram of the rabbits were monitored for 10 minutes. When the data stabilized, the electrocardiogram, systolic pressure and diastolic pressure of each rabbit were recorded on a personal computer via an A/D converter. The Control rabbit was administered 5% dextrose solution containing 0.1% DMSO as a control solution for 10 minutes at 0.1 ml/min. Test 6 and 7 rabbits were administered 5% dextrose containing the compound at 0.1 ml/min, and then the compound at an infusion rate of 0.04 mg/kg/min. Test 8 and 9 rabbits were administered 5% dextrose containing the compound at 0.1 ml/min, and then the compound at an infusion rate of 0.4 mg/kg/min.
Systolic pressure (mmHg) and diastolic pressure (mmHg) of the Control and Test rabbits were measured over 5 heart beats before administration of the solution, and 5 and 10 minutes after administration. The mean blood pressure (mmHg) was calculated from the systolic pressure (mmHg) and the diastolic pressure (mmHg), using the formula: mean blood pressure (mmHg)=[(systolic pressure+diastolic pressure)×½].

[2] = test system: male Wistar rats; assay: Experiment 1: left ventricular end diastolic pressure in rats under calcium chloride and norepinephrine infusion; assay type: in vivo, rat
Experimental: In Experiment 1, the hydrochloride of 4-[3-(4-benzylpiperidine-1-yl) propionyl]-7-methoxy-2,3,4,5-tetrahydro-1,4-benzothiazepine, the compound in the invention (hereinafter called the compound), was used as a pharmaceutically acceptable salt of the 1,4-benzothiazepine derivative. Eight-week old male Wistar rats weighing 300-330 g were used in the study. The rats were anesthetized with 1,000 mg/kg of urethane and 80 mg/kg of α-chloralose by subperitoneal injection, and natural respiration was maintained. In this experiment, 100 mg of the compound was dissolved in 1 ml of dimethylsulfoxide (DMSO) and the resulting DMSO solution of the compound was stored at 4° C. Norepinephrine solution was prepared by dissolving 1 mg of norepinephrine in 41 μl of distilled water, at an infusion speed of 40 μg/kg/min.
Firstly, continuous infusion catheters of calcium chloride solution or norepinephrine solution containing calcium chloride were inserted into the right external jugular veins of the rats, and microchip catheters (SPC-320, Millar) were inserted into the left ventricles via the right common arteries. In addition, test drug infusion catheters were inserted into the right femoral veins.
A 1-lead electrocardiogram and the left ventricular pressure were recorded simultaneously on a personal computer via an A/D converter. In order to determine the left ventricular end diastolic pressure, a pressure equivalent to the R wave of the electrocardiogram was measured at 20 heart beats every minute, and the mean of the pressure so measured was determined as the left ventricular end diastolic pressure, at the time of measuring. In the preparation step, blood pressure, pulse, and electrocardiogram of the rats were monitored for 15 minutes and allowed to stabilize, and then 5% dextrose solution containing calcium chloride (at a concentration based on the weight of the rat) was infused into the right external jugular vein for 20 minutes at 16.6 μl/min (9.0 mg/kg/min of calcium chloride).
Secondly, norepinephrine solution containing calcium chloride without changes in dosage was immediately injected at a rate of 40 μg/kg/min via the right external jugular vein. After the start of the administration, calcium chloride and norepinephrine were then continuously injected in the form of a norepinephrine solution containing calcium chloride. With continuous injection of calcium chloride and norepinephrine (in the form of a norepinephrine solution containing calcium chloride) via the right external jugular vein, 0.2 ml of […] was administered over 30 seconds to the first rat (weight: 300 g) as a control via the right femoral vein, 5 minutes after commencement of injection (intravenous injection) of calcium chloride and norepinephrine (in the form of a norepinephrine solution containing calcium chloride) via the right external jugular vein; this rat was defined as Control 1. Similarly to Control 1, with continuous injection of calcium chloride and norepinephrine (in the form of a norepinephrine solution containing calcium chloride) via the right external jugular vein, 0.2 ml of 1% DMSO solution as a solvent control was administered over 30 seconds to a second rat (weight: 310 g) via the right femoral vein, 5 minutes after commencement of injection (intravenous injection) via the right external jugular vein of calcium chloride and norepinephrine (in the form of a norepinephrine solution containing calcium chloride); this rat was defined as Control 2. […]

For `COc1ccc2c(c1)CN(C(=O)CCN1CCC(Cc3ccccc3)CC1)CCS2` [the compound, 4-[3-(4-benzylpiperidine-1-yl)propionyl]-7-methoxy-2,3,4,5-tetrahydro-1,4-benzothiazepine], the Mean blood pressure ([1]; infusion rate 0.04 mg/kg/min, after 5 minutes) was 79.5 mmHg and 82.0 mmHg, the Mean blood pressure ([1]; infusion rate 0.04 mg/kg/min, after 10 minutes) was 85.9 mmHg and 93.4 mmHg and the Mean blood pressure ([1]; infusion rate 0.04 mg/kg/min, before administration) was 85.6 mmHg and 87.7 mmHg. For the same molecule, the “Mean blood pressure relative to before administration (100%)” value ([1]; infusion rate 0.04 mg/kg/min) was “(100%)”, the Mean blood pressure ([1]; infusion rate 0.4 mg/kg/min, after 5 minutes) was 35.7 mmHg and 64.5 mmHg and the Mean blood pressure ([1]; infusion rate 0.4 mg/kg/min, after 10 minutes) was 41.7 mmHg and 46.3 mmHg. The Mean blood pressure ([1]; infusion rate 0.4 mg/kg/min, before administration) was 74.0 mmHg and 97.7 mmHg, the “Mean blood pressure relative to before administration (100%)” value ([1]; infusion rate 0.4 mg/kg/min) was “(100%)” and the “Left ventricular diastolic pressure compared with Controls 1 and 2 at the same time point” value ([2]; 15 minutes after commencement of the test drug, Test drugs 1 and 2) was “less than half those in Controls 1 and 2”. For the same molecule, the “Left ventricular end diastolic pressure” value ([2]; Test drug 1: 0.3 mg/kg i.v. over 30 s + 0.02 mg/kg/min to 15 min, 0 minutes (just before the start of test drug administration)) was 8.9 mmHg, the “Left ventricular end diastolic pressure” value ([2]; Test drug 1: 0.3 mg/kg i.v. over 30 s + 0.02 mg/kg/min to 15 min, 5 minutes before test drug (just before the start of norepinephrine), baseline) was 8.6 mmHg and the “Left ventricular end diastolic pressure” value ([2]; Test drug 1: 0.3 mg/kg i.v. over 30 s + 0.02 mg/kg/min to 15 min, 10 minutes before test drug (15 minutes after the start of CaCl2), baseline) was 8.5 mmHg. For the same molecule, the “Left ventricular end diastolic pressure” value ([2]; Test drug 1: 0.3 mg/kg i.v. over 30 s + 0.02 mg/kg/min to 15 min, 15 minutes before test drug (10 minutes after the start of CaCl2), baseline) was 8.6 mmHg, the “Left ventricular end diastolic pressure” value ([2]; Test drug 1: 0.3 mg/kg i.v. over 30 s + 0.02 mg/kg/min to 15 min, 20 minutes before test drug (5 minutes after the start of CaCl2), baseline) was 7.9 mmHg and the “Left ventricular end diastolic pressure” value ([2]; Test drug 1: 0.3 mg/kg i.v. over 30 s + 0.02 mg/kg/min to 15 min, 25 minutes before test drug (just after the start of CaCl2), baseline) was 7.8 mmHg. For the same molecule, the “Left ventricular end diastolic pressure” value ([2]; Test drug 1: 0.3 mg/kg i.v. over 30 s + 0.02 mg/kg/min to 15 min, CaCl2 + norepinephrine infusion, 5 minutes after the start of test drug administration) was 10.6 mmHg, the “Left ventricular end diastolic pressure” value ([2]; Test drug 1: 0.3 mg/kg i.v. over 30 s + 0.02 mg/kg/min to 15 min, CaCl2 + norepinephrine infusion, 10 minutes after the start of test drug administration) was 12.5 mmHg and the “Left ventricular end diastolic pressure” value ([2]; Test drug 1: 0.3 mg/kg i.v. over 30 s + 0.02 mg/kg/min to 15 min, CaCl2 + norepinephrine infusion, 15 minutes after the start of test drug administration) was 11.8 mmHg. For the same molecule, the “Left ventricular end diastolic pressure” value ([2]; Test drug 1: 0.3 mg/kg i.v. over 30 s + 0.02 mg/kg/min to 15 min, CaCl2 + norepinephrine infusion, 30 minutes before test drug (5 minutes before the start of CaCl2), baseline) was 7.5 mmHg, the “Left ventricular end diastolic pressure” value ([2]; Test drug 2: 0.3 mg/kg i.v. over 30 s only, 0 minutes (just before the start of test drug administration)) was 9.6 mmHg and the “Left ventricular end diastolic pressure” value ([2]; Test drug 2: 0.3 mg/kg i.v. over 30 s only, 5 minutes before test drug (just before the start of norepinephrine), baseline) was 9.3 mmHg. For the same molecule, the “Left ventricular end diastolic pressure” value ([2]; Test drug 2: 0.3 mg/kg i.v. over 30 s only, 10 minutes before test drug (15 minutes after the start of CaCl2), baseline) was 9.0 mmHg, the “Left ventricular end diastolic pressure” value ([2]; Test drug 2: 0.3 mg/kg i.v. over 30 s only, 15 minutes before test drug (10 minutes after the start of CaCl2), baseline) was 9.2 mmHg and the “Left ventricular end diastolic pressure” value ([2]; Test drug 2: 0.3 mg/kg i.v. over 30 s only, 20 minutes before test drug (5 minutes after the start of CaCl2), baseline) was 8.8 mmHg. The “Left ventricular end diastolic pressure” value ([2]; Test drug 2: 0.3 mg/kg i.v. over 30 s only, 25 minutes before test drug (just after the start of CaCl2), baseline) was 8.6 mmHg, the “Left ventricular end diastolic pressure” value ([2]; Test drug 2: 0.3 mg/kg i.v. over 30 s only, CaCl2 + norepinephrine infusion, 5 minutes after the start of test drug administration) was 13.8 mmHg and the “Left ventricular end diastolic pressure” value ([2]; Test drug 2: 0.3 mg/kg i.v. over 30 s only, CaCl2 + norepinephrine infusion, 10 minutes after the start of test drug administration) was 16.4 mmHg. For the same molecule, the “Left ventricular end diastolic pressure” value ([2]; Test drug 2: 0.3 mg/kg i.v. over 30 s only, CaCl2 + norepinephrine infusion, 15 minutes after the start of test drug administration) was 15.3 mmHg and the “Left ventricular end diastolic pressure” value ([2]; Test drug 2: 0.3 mg/kg i.v. over 30 s only, CaCl2 + norepinephrine infusion, 30 minutes before test drug (5 minutes before the start of CaCl2), baseline) was 8.4 mmHg.
